For 1 molecule, EC30 and IC50 results are on record in patent US9765035B2 (priority 2013, dated 2017).

Where two headings read alike, the source gives them in different places.

Test [1] deals with RKO cells, mono-methyl arginine. Put plainly: RKO Methylation Assay (In Cell Western for mono-methyl arginine). In kind it is cell-based. The note with it: Homo sapiens, 72 hours. From the text: RKO adherent cells were purchased from ATCC (American Type Culture Collection), Manassas, Va., USA. DMEM/Glutamax medium, penicillin-streptomycin, heat inactivated fetal bovine serum, 0.05% trypsin and D-PBS were purchased from Life Technologies, Grand Island, N.Y., USA. Odyssey blocking buffer, 800CW goat anti-rabbit IgG (H+L) antibody, and Licor Odyssey infrared scanner were purchased from Licor Biosciences, Lincoln, Nebr., USA. Mono-methyl arginine antibody was purchased from Cell Signaling Technology, Danvers, Mass., USA. Methanol was purchased from VWR, Franklin, Mass., USA. 10% Tween 20 was purchased from KPL, Inc., Gaithersburg, Md., USA. DRAQ5 was purchased from Biostatus Limited, Leicestershire, UK.
RKO adherent cells were maintained in growth medium (DMEM/Glutamax medium supplemented with 10% v/v heat inactivated fetal bovine serum and 100 units/mL penicillin-streptomycin) and cultured at 37° C. under 5% CO2.
Cell Treatment, in Cell Western (ICW) for Detection of Mono-Methyl Arginine and DNA Content. […] Compound (100 nL) from a 96-well source plate was added directly to 384 well cell plate. Plates were incubated at 37° C., 5% CO2 for 72 hours. After three days of incubation, plates were brought to room temperature outside of the incubator for ten minutes and blotted on paper towels to remove cell media. 50 μL of ice cold 100% methanol was added directly to each well and incubated for 30 min at room temperature. After 30 min, plates were transferred to a Biotek EL406 plate washer and washed 2 times with 100 μL per well of wash buffer (1×PBS). Next 60 μL per well of Odyssey blocking buffer (Odyssey Buffer with 0.1% Tween 20 (v/v)) were added to each plate and incubated 1 hour at room temperature. Blocking buffer was removed and 20 μL per well of primary antibody was added (mono-methyl arginine diluted 1:200 in Odyssey buffer with 0.1% Tween 20 (v/v)) and plates were incubated overnight (16 hours) at 4° C. Plates were washed 5 times with 100 μL per well of wash buffer. […] The plates were washed 5 times with 100 μL per well wash buffer then 2 times with 100 μL per well of water. Plates were allowed to dry at room temperature then imaged on the Licor Odyssey machine which measures integrated intensity at 700 nm and 800 nm wavelengths. Both 700 and 800 channels were scanned.
Calculations: First, the ratio for each well was determined by:
Each plate included fourteen control wells of DMSO only treatment (minimum activation) as well as fourteen control wells for maximum activation treated with 20 μM of a reference compound. The average of the ratio values for each control type was calculated and used to determine the percent activation for each test well in the plate. Reference compound was serially diluted three-fold in DMSO for a total of nine test concentrations, beginning at 20 μM. Percent activation was determined and EC30 curves were generated using triplicate wells per concentration of compound.

A further test deals with human PRMT6 (Homo sapiens, UniProt Q96LA8). Put plainly: biochemical. The source says: General Materials. S-adenosylmethionine (SAM), S-adenosylhomocysteine (SAH), bicine, Tween20, dimethylsulfoxide (DMSO), bovine skin gelatin (BSG), sodium butyrate and Tris(2-carboxyethyl)phosphine hydrochloride solution (TCEP) were purchased from Sigma-Aldrich at the highest level of purity possible. ^3H-SAM was purchase from American Radiolabeled Chemicals with a specific activity of 80 Ci/mmol. 384-well streptavidin Flashplates were purchased from PerkinElmer.
Substrates. Peptide representative of human histone H4 residues 36-50 was synthesized with an N-terminal linker-affinity tag motif and a C-terminal amide cap by 21st Century Biochemicals. The peptide was purified by high-performance liquid chromatography (HPLC) to greater than 95% purity and confirmed by liquid chromatography mass spectrometry (LC-MS). The sequence was Biot-Ahx-[…]-amide and contained a monomethylated lysine at position 44 (SEQ ID NO.:5).
Molecular Biology: Full-length human PRMT6 (NM_018137.2) transcript clone was amplified from an HEK 293 cDNA library, incorporating a flanking 5′ sequence encoding a FLAG tag ([…]) (SEQ ID NO.:6) fused directly to Ser 2 of PRMT6 and a 3′ sequence encoding a hexa His sequence (HHHHHH) (SEQ ID NO.: 17) fused directly to Asp 375. The amplified gene was subcloned into pFastBacMam (Viva Biotech).
Protein Expression. Recombinant baculovirus were generated according to Bac-to-Bac kit instructions (Life Technologies). […] Infections were carried out at 37° C. for 48 hours, harvested by centrifugation, and stored at −80° C. for purification.
Protein Purification. […] Column was washed with 20 mM imidazole in the same buffer and Flag-PRMT6-His was eluted with 150 mM imidazole. Pooled fractions were dialysed against buffer Ni-A and further purified by anti-flag M2 affinity chromatography. Flag-PRMT6-His was eluted with 200 ug/ml FLAG peptide in the same buffer. Pooled fractions were dialysed in 20 mM Tris, 150 mM NaCl, 10% glycerol and 5 mM β-mercaptoethanol, pH 7.8. The purity of recovered protein was 95%.
General Procedure for PRMT6 Enzyme Assays on Peptide Substrates. The assays were all performed in a buffer consisting of 20 mM Bicine (pH=7.6), 1 mM TCEP, 0.005% BSG, and 0.002% Tween 20, prepared on the day of use. Compounds in 100% DMSO (1 ul) were spotted into a polypropylene 384-well V-bottom plates (Greiner) using a Platemate Plus outfitted with a 384-channel head (Thermo Scientific). DMSO (1 ul) was added to Columns 11, 12, 23, 24, rows A-H for the maximum signal control and 1 ul of SAH, a known product and inhibitor of PRMT6, was added to columns 11, 12, 23, 24, rows I-P for the minimum signal control. A cocktail (40 ul) containing the PRMT6 enzyme was added by Multidrop Combi (Thermo-Fisher). The compounds were allowed to incubate with PRMT6 for 30 min at room temperature, then a cocktail (10 ul) containing SAM and peptide was added to initiate the reaction (final volume=51 ul). The final concentrations of the components were as follows: PRMT6 was 1 nM, ^3H-SAM was 200 nM, non-radiolabeled SAM was 250 nM, peptide was 75 nM, SAH in the minimum signal control wells was 1 mM, and the DMSO concentration was 2%. The assays were stopped by the addition of non-radiolabeled SAM (10 ul) to a final concentration of 400 uM, which dilutes the ^3H-SAM to a level where its incorporation into the peptide substrate is no longer detectable. 50 ul of the reaction in the 384-well polypropylene plate was then transferred to a 384-well Flashplate and the biotinylated peptides were allowed to bind to the streptavidin surface for at least 1 hour before being washed once with 0.1% Tween20 in a Biotek EL×405 plate washer. The plates were then read in a PerkinElmer TopCount plate reader to measure the quantity of ^3H-labeled peptide bound to the Flashplate surface, measured as disintegrations per minute (dpm) or alternatively, referred to as counts per minute (cpm). […]

Chain of human PRMT6 (Q96LA8 with tags, fused parts or gaps): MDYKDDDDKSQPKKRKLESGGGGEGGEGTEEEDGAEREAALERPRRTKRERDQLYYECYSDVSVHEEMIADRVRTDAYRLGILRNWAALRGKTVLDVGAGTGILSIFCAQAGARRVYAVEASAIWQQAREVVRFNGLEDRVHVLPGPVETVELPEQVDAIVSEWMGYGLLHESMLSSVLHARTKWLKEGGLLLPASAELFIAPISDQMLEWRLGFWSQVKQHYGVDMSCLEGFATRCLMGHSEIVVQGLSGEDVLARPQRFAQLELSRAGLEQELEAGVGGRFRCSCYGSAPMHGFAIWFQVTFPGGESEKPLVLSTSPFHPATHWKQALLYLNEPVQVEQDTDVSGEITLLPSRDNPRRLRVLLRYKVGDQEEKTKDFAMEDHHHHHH

Regarding `CNCCN(C)Cc1n[nH]c2ccc(OC(C)C(C)C)cc12` (stereo not shown) [Compound 4], the EC30 in test [1] (In Cell Western EC30, RKO cells, single experiment or average of multiple experiments, read-out: RGG ICW) was 1680 nM; in test [1] (In Cell Western, RKO cells, read-out: RGG ICW EC30), less than 3000 nM. In addition, the IC50 was less than 100 nM on human PRMT6 (biochemical evaluation, peptide substrate, read-out: PRMT6 IC50) and 36.4 nM at human PRMT6 (single experiment or average of multiple experiments, read-out: PRMT6 biochemical evaluation (numerical)).
